Laboratory results as given in patent publication US20080113955A1, “TREATMENT OF INFANT HYPERBIL[…] LOW DOSAGES OF STANNSOPORFIN” (priority 2006, published 2008).

How the values were obtained:
[1] = Side effects / adverse events in the low-dose stannsoporfin infant study; format: in vivo, human
Procedure: (§1) Low-dose administration of stannsoporfin was tested in a group of infants in Hanoi, Vietnam and Michigan, United States. The known and unknown risks of the proposed study intervention and the potential for direct and indirect benefit were discussed with each subject's parents or guardians. Written informed consent was obtained from a parent or guardian of each subject before enrollment in the study. The study protocol was conducted under the guidelines of current Good Clinical Practice as promulgated by the United States Food and Drug Administration and international regulatory bodies. The study was reviewed and approved by the Institutional Review Board of the William Beaumont Hospital, Royal Oak, Mich., and the Vietnamese Ministry of Health and the Ethics Review Board of the National Hospital for Pediatrics of Hanoi.
All infants received phototherapy to treat hyperbilirubinemia; thus, the group designated as “placebo” were treated with phototherapy, as were the other groups. The placebo group had 18 babies total. […] The 0.75 mg/kg stannsoporfin group had 19 babies total. […] The 1.5 mg/kg stannsoporfin group had 18 babies total. […] Treatment refers to either placebo injection or stannsoporfin injection; as previously indicated, all babies received phototherapy. The placebo used was normal physiological saline. Stannsoporfin was administered via intramuscular injection in sodium phosphate buffer at a concentration of 20 mg/ml. A vial containing 1.5 ml was used, where a dose based on birthweight of the infant and whether a 0.75 mg/kg or 1.5 mg/kg dose was withdrawn. (For example, a 5 kg birthweight baby treated at a dose of 1.5 mg/kg would receive 7.5 mg of stannsoporfin; thus, a volume of 0.375 ml from the 20 mg/ml solution would be used to provide this dose.) In the majority of cases, the infants were between 4 and 7 days of age at the time of either stannsoporfin administration or exchange transfusion. […]

[2] = tested on: infant hyperbilirubinemia; assay: Low-dose administration of stannsoporfin in infants with hyperbilirubinemia (all receiving phototherapy): serum bilirubin and need for exchange transfusion; format: in vivo, human; settings: for # transfused pts (babies total received exchange transfusions): intramuscular, before or after treatment
Procedure: as §1
All infants received phototherapy to treat hyperbilirubinemia; thus, the group designated as “placebo” were treated with phototherapy, as were the other groups. The placebo group had 18 babies total. […] The 0.75 mg/kg stannsoporfin group had 19 babies total. […] The 1.5 mg/kg stannsoporfin group had 18 babies total. […] Treatment refers to either placebo injection or stannsoporfin injection; as previously indicated, all babies received phototherapy. The placebo used was normal physiological saline. Stannsoporfin was administered via intramuscular injection in sodium phosphate buffer at a concentration of 20 mg/ml. A vial containing 1.5 ml was used, where a dose based on birthweight of the infant and whether a 0.75 mg/kg or 1.5 mg/kg dose was withdrawn. (For example, a 5 kg birthweight baby treated at a dose of 1.5 mg/kg would receive 7.5 mg of stannsoporfin; thus, a volume of 0.375 ml from the 20 mg/ml solution would be used to provide this dose.) In the majority of cases, the infants were between 4 and 7 days of age at the time of either stannsoporfin administration or exchange transfusion. The results are shown in FIG. 1 and FIG. 2; infants receiving stannsoporfin injections who required exchange transfusions before or after treatment are not included in the data presented in FIG. 1 for any group, while babies in the stannsoporfin groups who required exchange transfusion are excluded from FIG. 2 and only babies in the placebo group that did receive exchange transfusion are included in FIG. 2.

jaundiced infants = settings: single dose of 6 umol/kg birthweight (4.5 mg/kg birthweight); cited from earlier work
[3] = 0.75 mg/kg group, 19 babies total
[4] = 1.5 mg/kg group, 18 babies total

## tin (IV) mesoporphyrin IX dichloride [stannsoporfin]
[1]; all treatment groups
  adverse events considered probably or definitely related to the study treatment: None
[1]; each treatment group
  infants who experienced at least one adverse event: Greater than 60%
[1]; placebo, 0.75 mg/kg and 1.5 mg/kg groups
  incidence, severity, seriousness, and causality of adverse events, differences among the three treatment groups: no statistically significant differences
[2]; 0.75 mg/kg birthweight, N = 19, plus phototherapy
  # transfused pts (babies total received exchange transfusions): 3
[2]; [3]
  babies who did not receive an exchange transfusion: 16
  babies who received an exchange transfusion after treatment: 1
[2]; 0.75 mg/kg, N = 19
  % requiring transfusions: 16%
[2]; 1.5 mg/kg birthweight, N = 18, plus phototherapy
  # transfused pts (babies total received exchange transfusions): 2
[2]; [4]
  babies who did not receive exchange transfusion: 16
  babies who received an exchange transfusion after treatment: 2
[2]; 1.5 mg/kg, N = 18
  % requiring transfusions: 11%
[2]; 1.5 mg/kg, at 24 hours, FIG. 1
  significance value P versus placebo, serum bilirubin: < 0.05
[2]; 1.5 mg/kg, at 48 hours, FIG. 1
  significance value P versus placebo, serum bilirubin: < 0.001
[2]; 1.5 mg/kg, FIG. 2
  decrease in serum bilirubin compared with the exchange transfusion (placebo injection) group: greater than that for the exchange transfusion group at 3 of the 4 post-treatment data points
[2]; both doses, 0.75 mg/kg and 1.5 mg/kg, babies who required exchange transfusions excluded, FIG. 1
  reduction of serum bilirubin versus placebo (phototherapy only): greater reduction of serum bilirubin than the placebo group
[2]; both stannsoporfin groups, 0.75 mg/kg and 1.5 mg/kg, babies without exchange transfusion, FIG. 2
  percentage reduction in starting bilirubin levels: substantial decrease in serum bilirubin
[2]; low-dose stannsoporfin (0.75 and 1.5 mg/kg) versus control
  need for exchange transfusion: significantly decreased the need for exchange transfusion
Jaundiced infants
  need for phototherapy in jaundiced infants: could avoid the need for phototherapy
